Measured values as given in patent US12559529B2, “NPY2 receptor agonists” (Boehringer Ingelheim International GmbH, priority 2019, dated 2026).
pKi: −log10 of the molar value. *1 amine or outer side, *2 acyl side, *3 side chain or, on linkers, in order; H or OH if unused. Where a SMILES comes first, the peptide text is derived from it. Side-chain parts run from the residue outwards. The star is where a group is joined. C18 diacid = O=C(O)CCCCCCCCCCCCCCCCC(=O)*; γGlu = O=C(O)[C@H](CCC(=O)[*:2])N[*:1]; Isovaleryl = CC(C)CC(=O)*; AEEA = NCCOCCOCC(=O)O

biological target: T1, Human Neuropeptide Y2 Receptor (Homo sapiens, UniProt P49146); assay: Radioligand binding competition assay (RLB); conditions: Table 3; human 125I-PYY (1-36) 0.02 nM, Y2 receptor membranes; read-out: Ki
T1 construct: purchased CHEMICON HTS066M
T1 sequence (P49146 1-381): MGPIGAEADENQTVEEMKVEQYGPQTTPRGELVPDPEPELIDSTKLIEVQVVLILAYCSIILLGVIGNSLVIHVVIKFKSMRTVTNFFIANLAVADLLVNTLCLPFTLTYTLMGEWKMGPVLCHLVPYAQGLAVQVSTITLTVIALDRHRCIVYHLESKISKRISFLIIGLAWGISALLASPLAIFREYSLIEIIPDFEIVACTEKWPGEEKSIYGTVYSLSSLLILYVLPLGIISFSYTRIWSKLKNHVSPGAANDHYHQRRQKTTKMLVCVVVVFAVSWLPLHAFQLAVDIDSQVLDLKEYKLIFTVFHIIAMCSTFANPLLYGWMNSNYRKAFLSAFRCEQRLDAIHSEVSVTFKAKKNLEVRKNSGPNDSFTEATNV
Procedure, shortened: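 Peptide dilutions made in pH 7.4 HEPES assay buffer with 0.2% ovalbumin; human Y2 receptor membranes added at 0.5 μg protein/well; plates shaken 2 h at room temperature; reaction stopped by vacuum filtration onto PEI-treated GF/C filters with ice-cold high-salt washes; radioactivity counted by scintillation.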

pKi	Structure (SMILES)
8.50	CC(C)CC(=O)N[C@@H](C)C(=O)N1CCC[C@H]1C(=O)N[C@@H](CCC(=O)O)C(=O)N[C@@H](CCCCNC(=O)COCCOCCNC(=O)COCCOCCNC(=O)CC[C@H](NC(=O)CCCCCCCCCCCCCCCCC(=O)O)C(=O)O)C(=O)N1CCC[C@H]1C(=O)N[C@@H](CCC(=O)O)C(=O)N[C@@H](CCC(=O)O)C(=O)N[C@@H](CC(=O)O)C(=O)N[C@@H](C)C(=O)N[C@@H](CO)C(=O)N1CCC[C@H]1C(=O)N[C@@H](CCC(=O)O)C(=O)N[C@@H](CCC(=O)O)C(=O)N[C@@H](CC(C)C)C(=O)N[C@@H](CCC(N)=O)C(=O)N[C@@H](CCCNC(=N)N)C(=O)N[C@@H](Cc1ccc(O)cc1)C(=O)N[C@@H](Cc1ccc(O)cc1)C(=O)N[C@H](C(=O)N[C@@H](CO)C(=O)N[C@@H](CC(C)C)C(=O)N[C@@H](CCCNC(=N)N)C(=O)N[C@@H](C)C(=O)N[C@@H](Cc1ccc(O)cc1)C(=O)N[C@@H](Cc1ccc(O)cc1)C(=O)N[C@@H](CC(N)=O)C(=O)N[C@@H](Cc1c[nH]c2ccccc12)C(=O)N[C@@H](CC(C)C)C(=O)N[C@H](C(=O)N[C@@H](CCCNC(=N)N)C(=O)N[C@@H](CCC(N)=O)C(=O)N[C@@H](CCCNC(=N)N)C(=O)N[C@@H](Cc1ccc(O)cc1)C(N)=O)[C@@H](C)O)C(C)C [Compound 63, N{alpha-4}-(3-methylbutanoyl)-N{epsilon-7}-[2-(2-{2-[2-(2-{2-[(4S)-4-carboxy-4-(17-carboxyheptadecanamido)butanamido]ethoxy}ethoxy)acetamido]ethoxy}ethoxy)acetamido]-[4A,7K,9E,18Q,22V,26A,28Y,30W,31L]hPYY (4-36)]
8.99	CC[C@H](C)[C@H](NC(=O)[C@H](CCC(=O)O)NC(=O)[C@@H](NC(=O)[C@H](Cc1ccc(O)cc1)NC(=O)[C@H](Cc1ccc(O)cc1)NC(=O)[C@H](CCCNC(=N)N)NC(=O)[C@H](CCC(N)=O)NC(=O)[C@H](CC(C)C)NC(=O)[C@H](CCC(=O)O)NC(=O)[C@H](CCC(=O)O)NC(=O)[C@@H]1CCCN1C(=O)[C@H](CO)NC(=O)[C@H](C)NC(=O)[C@H](CC(=O)O)NC(=O)[C@H](CCC(=O)O)NC(=O)[C@H](CCC(=O)O)NC(=O)[C@@H]1CCCN1C(=O)[C@H](CCCCNC(=O)COCCOCCNC(=O)COCCOCCNC(=O)CC[C@H](NC(=O)CCCCCCCCCCCCCCCCC(=O)O)C(=O)O)NC(=O)[C@H](CCC(=O)O)NC(=O)[C@@H]1CCCN1C(=O)[C@H](C)NC(=O)CC(C)C)C(C)C)C(=O)N[C@@H](CCCNC(=N)N)C(=O)N[C@@H](Cc1c[nH]cn1)C(=O)N[C@@H](Cc1ccc(O)cc1)C(=O)N[C@@H](Cc1ccc(O)cc1)C(=O)N[C@@H](CC(N)=O)C(=O)N[C@@H](Cc1c[nH]c2ccccc12)C(=O)N[C@@H](CC(C)C)C(=O)N[C@H](C(=O)N[C@@H](CCCNC(=N)N)C(=O)N[C@@H](CCC(N)=O)C(=O)N[C@@H](CCCNC(=N)N)C(=O)N[C@@H](Cc1ccc(O)cc1)C(N)=O)[C@@H](C)O [Compound 65, N{alpha-4}-(3-methylbutanoyl)-N{epsilon-7}-[2-(2-{2-[2-(2-{2-[(4S)-4-carboxy-4-(17-carboxyheptadecanamido)butanamido]ethoxy}ethoxy)acetamido]ethoxy}ethoxy)acetamido]-[4A,7K,9E,18Q,22V,23E,24I,28Y,30W,31L]hPYY (4-36)]
8.36	CC(C)CC(=O)N[C@@H](C)C(=O)N1CCC[C@H]1C(=O)N[C@@H](CCC(=O)O)C(=O)N[C@@H](CCCCNC(=O)COCCOCCNC(=O)COCCOCCNC(=O)CC[C@H](NC(=O)CCCCCCCCCCCCCCCCC(=O)O)C(=O)O)C(=O)N1CCC[C@H]1C(=O)N[C@@H](CCC(=O)O)C(=O)N[C@@H](CCC(=O)O)C(=O)N[C@@H](CC(=O)O)C(=O)N[C@@H](CO)C(=O)N[C@@H](C)C(=O)N1CCC[C@H]1C(=O)N[C@@H](CCC(=O)O)C(=O)N[C@@H](CCC(=O)O)C(=O)N[C@@H](CC(C)C)C(=O)N[C@@H](CCC(N)=O)C(=O)N[C@@H](CCCNC(=N)N)C(=O)N[C@@H](Cc1ccc(O)cc1)C(=O)N[C@@H](Cc1ccc(O)cc1)C(=O)N[C@H](C(=O)N[C@@H](CO)C(=O)N[C@@H](CC(C)C)C(=O)N[C@@H](CCCNC(=N)N)C(=O)N[C@@H](Cc1c[nH]cn1)C(=O)N[C@@H](Cc1ccc(O)cc1)C(=O)N[C@@H](Cc1ccc(O)cc1)C(=O)N[C@@H](CC(N)=O)C(=O)N[C@@H](Cc1c[nH]c2ccccc12)C(=O)N[C@@H](CC(C)C)C(=O)N[C@H](C(=O)N[C@@H](CCCNC(=N)N)C(=O)N[C@@H](CCC(N)=O)C(=O)N[C@@H](CCCNC(=N)N)C(=O)N[C@@H](Cc1ccc(O)cc1)C(N)=O)[C@@H](C)O)C(C)C [Compound 67, N{alpha-4}-(3-methylbutanoyl)-N{epsilon-7}-[2-(2-{2-[2-(2-{2-[(4S)-4-carboxy-4-(17-carboxyheptadecanamido)butanamido]ethoxy}ethoxy)acetamido]ethoxy}ethoxy)acetamido]-[4A,7K,9E,12S,13A,18Q,22V,28Y,30W,31L]hPYY (4-36)]
8.07	CC(C)CC(=O)N[C@@H](C)C(=O)N1CCC[C@H]1C(=O)N[C@@H](CCC(=O)O)C(=O)N[C@@H](CCCCNC(=O)COCCOCCNC(=O)COCCOCCNC(=O)CC[C@H](NC(=O)CCCCCCCCCCCCCCCCC(=O)O)C(=O)O)C(=O)N1CCC[C@H]1C(=O)N[C@@H](CCC(=O)O)C(=O)N[C@@H](CCC(=O)O)C(=O)N[C@@H](CCC(=O)O)C(=O)N[C@@H](C)C(=O)N[C@@H](CO)C(=O)N1CCC[C@H]1C(=O)N[C@@H](CCC(=O)O)C(=O)N[C@@H](CCC(=O)O)C(=O)N[C@@H](CC(C)C)C(=O)N[C@@H](CCC(N)=O)C(=O)N[C@@H](C)C(=O)N[C@@H](Cc1ccc(O)cc1)C(=O)N[C@@H](Cc1ccc(O)cc1)C(=O)N[C@H](C(=O)N[C@@H](CO)C(=O)N[C@@H](CC(C)C)C(=O)N[C@@H](CCCNC(=N)N)C(=O)N[C@@H](Cc1c[nH]cn1)C(=O)N[C@@H](Cc1ccc(O)cc1)C(=O)N[C@@H](Cc1ccc(O)cc1)C(=O)N[C@@H](CC(N)=O)C(=O)N[C@@H](Cc1c[nH]c2ccccc12)C(=O)N[C@@H](CC(C)C)C(=O)N[C@H](C(=O)N[C@@H](CCCNC(=N)N)C(=O)N[C@@H](CCC(N)=O)C(=O)N[C@@H](CCCNC(=N)N)C(=O)N[C@@H](Cc1ccc(O)cc1)C(N)=O)[C@@H](C)O)C(C)C [Compound 68, N{alpha-4}-(3-methylbutanoyl)-N{epsilon-7}-[2-(2-{2-[2-(2-{2-[(4S)-4-carboxy-4-(17-carboxyheptadecanamido)butanamido]ethoxy}ethoxy)acetamido]ethoxy}ethoxy)acetamido]-[4A,7K,9E,11E,18Q,19A,22V,28Y,30W,31L]hPYY (4-36)] (Isovaleryl-APEK([AEEA-AEEA-γGlu-C18 diacid])PEEEASPEELQAYYVSLRHYYNWLTRQRY-NH2)
